Reference: patent US20260276656A1, “GUT MICROBIOTA-RELATED METHODS FOR TREATING DEMENTIA AND AGE-DEPENDENT COGNITIVE DECLINE” (Albert-Ludwigs-Universitat Freiburg, priority 2019, published 2026)
Entries after “also recorded” stand apart in the source; their conditions may differ.

Tests used:
[1] = tested on: medial prefrontal cortex neurons; assay: In vivo single unit recordings from medial prefrontal cortex during natural sleep, spike rate and population coupling; set-up: species or system mouse; settings: 5 mg/kg body weight i.p.; versus PBS; normalized to baseline; FIG. 9B
Experimental: C57BL/6J mice aged 10-11 weeks were anesthetized with isofluorane (induction: 3%, maintenance approximately 1.5%). Buprenorphin (0.05-0.1 mg/kg body weight) and Carprofen (4-5 mg/kg body weight) were injected for analgesia. During implantation, the body temperature was maintained with a heating pad. The skin was incised from the cerebellum to the nose and the bone cleaned with 3% H2O2. Ground and reference screws (1 mm diameter) were inserted anterior to the lambdoid suture. A third stabilizing screw was inserted on the left parietal bone. […]
After habituation to the recording room for several days, single-unit recordings were performed at a sampling frequency of 30 kHz using a 32-channel amplifier (Intan Technologies). […] First, a baseline was recorded during sleep identified as epochs when mice were completely immobile in their home cage and slow wave activity could be seen in the PFC local field potential. […]
Recording sections containing artefacts were manually identified and removed. […] Firing rates were estimated from the total number of spikes during the analyzed behavioral episodes divided by the duration. To quantify population synchrony, we utilized a metric that compares the rate change of a given unit to the normalized population rate at each time point. […]

[2] = Untargeted metabolomics of blood serum and brain tissue; format: in vivo, mouse; settings: inferred from similarly elevated levels in serum and brain tissue of old mice
Experimental: Blood serum and hippocampal brain tissue was removed from young and old mice and snap-frozen in liquid nitrogen after determining the weight. Sample analysis was conducted by Metabolon, Inc. using a proprietary series of organic and aqueous extractions to remove the protein content while allowing maximum recovery of small molecules. The extract was divided into two parts: one for analysis by LC and the other for analysis by GC. TurboVap® (Zymark) was used to remove the organic solvent content. Each sample was then frozen and dried under vacuum. The exact methodology can be provided by Metabolon, Inc. as their standard protocol for untargeted mass spectrometry metabolomics.
Samples were snap-frozen upon collection and stored at −80° C. until further processing at Metabolon, Inc. 52. Briefly, recovery standards were added prior to the first step in the extraction process for quality control purposes. […] Three types of controls were analyzed in concert with the experimental samples: samples generated from a pool of spike-in controls extensively characterized by Metabolon, Inc. or generated from a small portion of each experimental sample of interest served as technical replicate throughout the data set; extracted water samples served as process blanks; and a cocktail of standards spiked into every analyzed sample allowed instrument performance monitoring. […]

blood-brain barrier crossing [2]: cross the blood-brain barrier
Structure (SMILES): C[N+](C)(C)CCCCC(=O)[O-] [NNN-trimethyl-5-aminovalerate, 5-(trimethylammonio) pentanoate]
average spike frequency (spike firing rate) [1]: No effect; also recorded: no change
population coupling [1]: significant increase
